We go through 1 sequence from article PMC5538626, “Structural and functional analysis of the GABARAP interaction motif (GIM)” (EMBO Reports, 2017).

Ends that are not written are not given here.

Experiment [1] has as its target T1, LC3B (Homo sapiens, UniProt Q9GZQ8).
T1 construct: modified Ub-leader (ubiquitin fusion leader) (N); made in house; host or cells: E. coli NEB T7 Express
Kind of experiment: ITC titration of PLEKHM1-LIR peptides into LC3B. The experiment is classed as binding. The settings on record: ITC, 25°C, pH 7.0; for ΔH: VP-ITC, one-site model, 0.4 mM peptide into 0.020 mM protein, 50 mM Na2HPO4, 100 mM NaCl. As for the experimental part: The genes for the truncated LC3A^2–121, LC3C^8–125, GABARAP^2–117 and GABARAP‐L1^2–117 proteins were cloned into pET30ΔSE vector between the BamHI and XhoI sites using previously established protocols 38. The chimeric constructs of the PLEKHM1‐LIR attached to the LC3A, GABARAP and GABARAP‐L1 proteins were prepared by inserting the oligonucleotide sequence corresponding to the PLEKHM1‐LIR peptide (P^629[…]^638) and glycine–serine linker into the BamHI site of the pET30ΔSE vector, placing the PLEKHM1‐LIR at the N‐terminal of the mature chimeric protein (similar to 31, 38). For the expression of human LC3 and GABARAP proteins for ITC and NMR experiments, plasmids with appropriate modified Ub‐leaders in pET vectors were used 39. Gene, encoding PLEKHM1‐LIR peptide, was ordered as synthetic oligonucleotides (Eurofins Genomics GmbH) and cloned into the pET39_Ub63_ vector 39 by NcoI–BamHI restriction sites. After TEV cleavage, the resulting peptide has the amino acid sequence GAMG‐P^629[…]^642, where the first four residues (GAMG) are the cloning artefact.
The chimeric constructs were expressed as a His‐tag fusion protein in E. coli BL21(DE3) cells. The cells were induced with 0.3 mM IPTG at OD600 0.6 for 16 h at 26°C. The cell pellets were lysed using mechanical sonication in lysis buffer (20 mM Tris–HCl pH 9.0, 100 mM NaCl, 10 mM imidazole, supplemented with 0.1% Triton X‐100). The proteins were purified using Ni‐NTA beads (GE Healthcare) and the His‐tag was cleaved using thrombin (Invitrogen) at room temperature for 16 h. The last step was gel filtration chromatography using a Superdex S200/300 GL column (GE Healthcare). The proteins were concentrated using spin concentrators (Vivaspin). For ITC and NMR studies, the non‐labelled and stable isotopes labelled LC3 and GABARAP proteins were obtained based on the protocols described elsewhere 30, 39. Here, E. coli NEB T7 Express culture transformed with corresponding plasmids were grown till OD600 nm = 1.0 and protein expression was induced with 0.2 mM IPTG. The cultures were incubated at 25°C for 8–12 h before cell harvesting. Isolation and purification procedures were similar to those reported in Ref. 22, 40. Before experiments, all proteins and peptides were equilibrated with a buffer containing 50 mM Na2HPO4, 100 mM NaCl at pH 7.0, and supplied with 5 mM protease inhibitor cocktail.
The protocol for preparation of non‐labelled and ^13C,^15N‐labelled PLEKHM1‐LIR peptide was slightly modified to achieve highest yield of the peptide. The 50 ml M9 culture was inoculated with NEB T7 cell transformed with pET39_Ub63‐PLEKHM1‐LIR plasmid and grown overnight at 37°. The collected cells were resuspended in 2 l of either LB or M9 media contained 1.5 g ^15N‐labelled NH4Cl and 3.0 g of ^13C‐labelled glucose. The cultures were grown at 37° till A(600 nm) = 0.9 and supplied with 1 mM of IPTG to induce Ub63‐PLEKHM1‐LIR overexpression (3 h at 37°). After that cells were harvested by centrifugation, re‐suspended in buffer contained 50 mM Tris–HCl pH = 7.9, 200 mM NaCl, 5% glycerol, 0.1 mg/ml DNase A and 4 mM protease inhibitor cocktail. After cell lysis by French press, debris was removed by centrifugation and clear supernatant was applied onto the column contained Ni‐NTA Sepharose equilibrated with the loading buffer (50 mM Tris–HCl pH = 7.9, 250 mM NaCl, 1% glycerol and 20 mM imidazole). Elution was performed with 400 mM imidazole in the same buffer. An aliquot of pure Ub63‐PLEKHM1‐LIR fractions was further purified by gel filtration on Superdex75 26 × 60 column for control ITC and analytical size exclusion chromatography experiments, remaining fusion protein was processed with the TEV‐protease and PLEKHM1‐LIR peptide was purified to 95% purity by reverse Ni‐NTA chromatography and followed gel filtration on Superdex75 26 × 60 column. Peak maximum of peptide was detected at […] (void volume 115 ml). Pure peptide was concentrated in Amicon concentrators with cut‐off of 3 kDa (> 95% retention). […]
In general terms: ITC needs no label: the signal is the heat of the interaction.

The target in experiment [2] is GABARAP proteins. Kind of experiment: ITC, GABARAP proteins (range). It is filed as binding, human. On the procedure: All titration experiments were performed at 25°C using a VP‐ITC microcalorimeter (Malvern Instruments Ltd, UK). The ITC data were analysed with the ITC‐Origin 7.0 software with a “one‐site” binding model. The peptides at concentrations of 0.4 mM were titrated into 0.020 mM LC3 and GABARAP proteins in 26 steps. The protein and peptide concentrations were calculated from the UV absorption at 280 nm by NanoDrop spectrophotometer (Thermo Fisher Scientific, DE, USA).

What is called Kd is the concentration at which binding is half-saturated. Consider GAMGPQQEDEWVNVQYPD [PLEKHM1‐LIR WT], for which, in experiment [1], the ΔH was -5.8 ± 0.2 kcal/mol, the KA is on record as 0.16 ± 0.01 ×10^6 M^−1, the “N (number of binding sites)” value is 1.06 ± 0.01 and the ΔG was -7.09 kcal/mol. In addition, in experiment [1], the ΔS result is reported as “+4.27 cal mol^−1 K^−1” and the “−T × ΔS” value was -1.27 kcal/mol. In experiment [1] (listed as PLEKHM1-LIR), the ΔH is -5.8 ± 0.2 kcal/mol, the KA is listed as 0.16±0.01 ×10^6 M^−1, the ΔG is -7.09 kcal/mol and the “−T × ΔS” value is -1.27 kcal/mol. In addition, in experiment [2], the Kd fell in the range of 0.55 to 0.77 µM.
